≈ marks a conversion by molar mass, not a printed value. Calls of active or inactive are those of the source. No cut-off for these calls is given here.
What was measured:
[1] = test system: Staphylococcus aureus; test: Antibacterial activity against methicillin-resistant Staphylococcus aureus after 20 hrs; format: functional
[2] = test system: Haemophilus influenzae; test: Antibacterial activity against Haemophilus influenzae up to 1.4 mM after 20 hrs; format: functional, organism-based
[3] = test system: Candida albicans; test: Antifungal activity against Candida albicans up to 1.4 mM after 24 hrs; format: functional, organism-based
[4] = test system: Streptococcus pneumoniae; test: Antibacterial activity against Streptococcus pneumoniae up to 1.4 mM after 20 hrs; format: functional, organism-based
[5] = test system: Enterococcus faecalis; test: Antibacterial activity against Enterococcus faecalis after 20 hrs; format: functional
[6] = test system: Staphylococcus aureus; test: Antibacterial activity against Staphylococcus aureus Smith after 20 hrs; format: functional
[7] = test system: Bacillus subtilis; test: Antibacterial activity against Bacillus subtilis after 20 hrs; format: functional
[8] = test system: Escherichia coli; test: Antibacterial activity against Escherichia coli up to 1.4 mM after 20 hrs; format: functional, organism-based

MIC [5] [µM]	MIC [6] [µM]	MIC [7] [µM]	Structure (SMILES)	MIC [1] [µM]	Activity [2]	Activity [3]	Activity [4]	Activity [8]
			C/C=C/[C@@H]1C(C)=C[C@@H]2CC[C@@H](C)C[C@@H]2[C@]1(C)C(=O)C1=C(O)C(CO)N(C)C1=O (some centres undefined)	12 (≈ 4.65 µg/mL)				
			C/C=C/[C@@H]1C=C[C@@H]2C[C@@H](C)CC[C@@H]2[C@]1(C)C(=O)C1=C(O)C(C(C)O)N(C)C1=O (some centres undefined) [CISSETIN]	10 (≈ 3.88 µg/mL)				
1400 (≈ 482 µg/mL)	1400 (≈ 482 µg/mL)	400 (≈ 138 µg/mL)	C/C=C/[C@H]1C(C)=C[C@H]2C[C@H](C)[C@H](O)C[C@H]2[C@]1(C)/C=C(C)/C=C/C(=O)O [PANNOMYCIN]		inactive	inactive	inactive	inactive
